Results: ChEMBL document CHEMBL4007467, “Effects of 6-paradol, an unsaturated ketone from gingers, on cytochrome P450-mediated drug metabolism” (Bioorg Med Chem Lett, 2017)

What was measured:
Type in all cases: ADME
CYP1A2 [1] = target: T1, CYP1A2 (Homo sapiens, UniProt P05177); assay: Inhibition of CYP1A2 in human liver microsomes assessed as enzyme-mediated metabolite formation at 0.3 uM using phenacetin as substrate incubated for 5 mins followed by NADPH addition measured after 30 mins by LC-MS/MS analysis relative to control; parameters: scale not given: the % may be the effect or the level left; details: probe phenacetin, read-out: Activity
T1 sequence (P05177 whole entry): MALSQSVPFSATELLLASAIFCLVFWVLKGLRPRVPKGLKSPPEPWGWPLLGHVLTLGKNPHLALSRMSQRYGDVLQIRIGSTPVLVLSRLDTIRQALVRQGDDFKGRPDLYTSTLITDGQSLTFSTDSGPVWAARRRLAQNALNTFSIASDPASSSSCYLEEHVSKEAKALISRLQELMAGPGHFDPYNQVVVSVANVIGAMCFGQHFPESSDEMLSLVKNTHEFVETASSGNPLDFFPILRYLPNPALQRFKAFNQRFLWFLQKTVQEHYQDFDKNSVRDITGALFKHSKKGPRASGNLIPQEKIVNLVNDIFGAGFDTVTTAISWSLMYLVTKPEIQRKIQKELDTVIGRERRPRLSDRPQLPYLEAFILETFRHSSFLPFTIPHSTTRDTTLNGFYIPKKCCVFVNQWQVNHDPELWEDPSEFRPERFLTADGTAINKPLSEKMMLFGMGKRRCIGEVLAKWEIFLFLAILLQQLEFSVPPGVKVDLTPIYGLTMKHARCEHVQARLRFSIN

CYP1A2 [2] = target: T1, CYP1A2; assay: Inhibition of CYP1A2 in human liver microsomes assessed as enzyme-mediated metabolite formation at 10 uM using phenacetin as substrate incubated for 5 mins followed by NADPH addition measured after 30 mins by LC-MS/MS analysis relative to control; parameters: scale not given: the % may be the effect or the level left; details: probe phenacetin, read-out: Activity
CYP2C8 [3] = target: T2, CYP2C8 (Homo sapiens, UniProt P10632); assay: Inhibition of CYP2C8 in human liver microsomes assessed as enzyme-mediated metabolite formation at 3 uM using paclitaxel as substrate incubated for 5 mins followed by NADPH addition measured after 30 mins by LC-MS/MS analysis relative to control; parameters: scale not given: the % may be the effect or the level left; details: probe paclitaxel, read-out: Activity
T2 sequence (P10632 whole entry): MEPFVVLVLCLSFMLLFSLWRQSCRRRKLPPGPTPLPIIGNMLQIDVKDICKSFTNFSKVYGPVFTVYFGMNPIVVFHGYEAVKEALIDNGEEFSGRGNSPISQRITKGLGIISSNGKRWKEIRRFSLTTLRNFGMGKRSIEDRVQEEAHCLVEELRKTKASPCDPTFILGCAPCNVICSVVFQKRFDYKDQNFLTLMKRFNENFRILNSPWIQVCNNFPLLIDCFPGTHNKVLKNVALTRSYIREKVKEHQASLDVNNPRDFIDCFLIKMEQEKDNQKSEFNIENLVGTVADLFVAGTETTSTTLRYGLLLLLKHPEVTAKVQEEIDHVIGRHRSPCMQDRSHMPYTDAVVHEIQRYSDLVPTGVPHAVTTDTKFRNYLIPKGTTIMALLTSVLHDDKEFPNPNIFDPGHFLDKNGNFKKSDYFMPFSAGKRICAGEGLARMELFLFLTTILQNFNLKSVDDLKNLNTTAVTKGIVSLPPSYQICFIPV

CYP1A2 [4] = target: T1, CYP1A2; assay: Inhibition of CYP1A2 in human liver microsomes assessed as enzyme-mediated metabolite formation at 30 uM using phenacetin as substrate incubated for 5 mins followed by NADPH addition measured after 30 mins by LC-MS/MS analysis relative to control; parameters: scale not given: the % may be the effect or the level left; details: probe phenacetin, read-out: Activity
CYP2C19 = CYP2C19 (Homo sapiens, UniProt P33261); assay: Inhibition of CYP2C19 in human liver microsomes assessed as enzyme-mediated metabolite formation at 30 uM using (S)-mephenytoin as substrate preincubated for 20 mins followed by substrate addition measured after 30 mins in presence of NADPH by LC-MS/MS analysis relative to control; parameters: scale not given: the % may be the effect or the level left; details: probe (S)-mephenytoin, read-out: Activity
CYP2C8 [5] = target: T2, CYP2C8; assay: Inhibition of CYP2C8 in human liver microsomes assessed as enzyme-mediated metabolite formation at 10 uM using paclitaxel as substrate preincubated for 20 mins followed by substrate addition measured after 30 mins in presence of NADPH by LC-MS/MS analysis relative to control; parameters: scale not given: the % may be the effect or the level left; details: probe paclitaxel, read-out: Activity
CYP3A4 [6] = target: T3, CYP3A4 (Homo sapiens, UniProt P08684); assay: Inhibition of CYP3A4 in human liver microsomes assessed as enzyme-mediated metabolite formation at 1 uM using midazolam as substrate preincubated for 20 mins followed by substrate addition measured after 30 mins in presence of NADPH by LC-MS/MS analysis relative to control; parameters: scale not given: the % may be the effect or the level left; details: probe midazolam, read-out: Activity
Cytochrome P450 2D6 = Cytochrome P450 2D6 (Homo sapiens, UniProt P10635); assay: Inhibition of CYP2D6 in human liver microsomes using dextromethorphan as substrate preincubated for 20 mins followed by substrate addition measured after 30 mins in presence of NADPH by LC-MS/MS analysis
Cytochrome P450 3A4 = Cytochrome P450 3A4 (Homo sapiens, UniProt P08684); assay: Inhibition of CYP3A4 in human liver microsomes using testosterone as substrate preincubated for 20 mins followed by substrate addition measured after 30 mins in presence of NADPH by LC-MS/MS analysis
CYP3A4 [7] = target: T3, CYP3A4; assay: Inhibition of CYP3A4 in human liver microsomes assessed as enzyme-mediated metabolite formation at 3 uM using midazolam as substrate preincubated for 20 mins followed by substrate addition measured after 30 mins in presence of NADPH by LC-MS/MS analysis relative to control; parameters: scale not given: the % may be the effect or the level left; details: probe midazolam, read-out: Activity
Cytochrome P450 2A6 = target: T4, Cytochrome P450 2A6 (Homo sapiens, UniProt P11509); assay: Inhibition of CYP2A6 in human liver microsomes using coumarin as substrate preincubated for 20 mins followed by substrate addition measured after 30 mins in presence of NADPH by LC-MS/MS analysis
T4 sequence (P11509 whole entry): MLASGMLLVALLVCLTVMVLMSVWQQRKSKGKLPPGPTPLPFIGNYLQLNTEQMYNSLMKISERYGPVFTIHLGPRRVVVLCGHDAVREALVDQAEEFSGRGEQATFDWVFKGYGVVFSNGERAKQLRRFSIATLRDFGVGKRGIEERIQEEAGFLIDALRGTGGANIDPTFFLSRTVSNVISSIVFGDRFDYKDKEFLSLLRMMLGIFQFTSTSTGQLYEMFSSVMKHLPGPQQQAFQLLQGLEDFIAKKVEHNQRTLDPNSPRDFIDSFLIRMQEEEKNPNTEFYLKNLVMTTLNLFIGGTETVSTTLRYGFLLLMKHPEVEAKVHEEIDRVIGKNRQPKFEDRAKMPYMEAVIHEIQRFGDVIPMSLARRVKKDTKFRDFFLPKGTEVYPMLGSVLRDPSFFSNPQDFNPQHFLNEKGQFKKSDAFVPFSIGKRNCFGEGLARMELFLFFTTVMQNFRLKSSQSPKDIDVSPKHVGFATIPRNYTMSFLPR

CYP2C9 = CYP2C9 (Homo sapiens, UniProt P11712); assay: Inhibition of CYP2C9 in human liver microsomes assessed as enzyme-mediated metabolite formation at 30 uM using diclofenac as substrate preincubated for 20 mins followed by substrate addition measured after 30 mins in presence of NADPH by LC-MS/MS analysis relative to control; parameters: scale not given: the % may be the effect or the level left; details: probe diclofenac, read-out: Activity
Sequence of CYP2C9 (P11712 whole entry): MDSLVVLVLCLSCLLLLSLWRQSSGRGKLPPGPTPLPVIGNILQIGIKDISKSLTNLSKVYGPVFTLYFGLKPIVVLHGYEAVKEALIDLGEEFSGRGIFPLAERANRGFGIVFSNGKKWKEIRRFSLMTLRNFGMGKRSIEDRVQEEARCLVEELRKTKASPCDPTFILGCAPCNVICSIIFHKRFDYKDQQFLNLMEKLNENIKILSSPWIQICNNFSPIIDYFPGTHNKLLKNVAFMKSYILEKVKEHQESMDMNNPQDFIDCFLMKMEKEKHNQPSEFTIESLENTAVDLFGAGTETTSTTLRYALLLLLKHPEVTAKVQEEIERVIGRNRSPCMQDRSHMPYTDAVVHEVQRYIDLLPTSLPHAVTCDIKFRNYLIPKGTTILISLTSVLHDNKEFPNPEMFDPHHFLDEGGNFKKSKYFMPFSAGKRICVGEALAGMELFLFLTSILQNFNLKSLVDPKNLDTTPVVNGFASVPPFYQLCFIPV

T3 sequence (P08684 whole entry): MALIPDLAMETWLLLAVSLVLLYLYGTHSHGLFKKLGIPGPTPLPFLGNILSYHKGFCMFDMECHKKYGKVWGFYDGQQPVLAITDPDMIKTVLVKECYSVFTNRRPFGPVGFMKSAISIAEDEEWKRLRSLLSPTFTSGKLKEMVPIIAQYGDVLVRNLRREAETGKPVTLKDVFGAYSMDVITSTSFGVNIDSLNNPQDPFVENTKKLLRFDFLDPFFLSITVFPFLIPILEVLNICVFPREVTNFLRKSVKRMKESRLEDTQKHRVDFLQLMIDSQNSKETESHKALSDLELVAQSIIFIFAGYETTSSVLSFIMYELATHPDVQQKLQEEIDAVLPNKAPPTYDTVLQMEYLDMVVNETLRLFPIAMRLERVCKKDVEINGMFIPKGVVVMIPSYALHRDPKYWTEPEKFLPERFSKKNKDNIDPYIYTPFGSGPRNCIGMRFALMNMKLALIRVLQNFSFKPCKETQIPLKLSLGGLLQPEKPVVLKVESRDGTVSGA
Sequence of Cytochrome P450 3A4 (P08684 whole entry): as above
Sequence of CYP2C19 (P33261 whole entry): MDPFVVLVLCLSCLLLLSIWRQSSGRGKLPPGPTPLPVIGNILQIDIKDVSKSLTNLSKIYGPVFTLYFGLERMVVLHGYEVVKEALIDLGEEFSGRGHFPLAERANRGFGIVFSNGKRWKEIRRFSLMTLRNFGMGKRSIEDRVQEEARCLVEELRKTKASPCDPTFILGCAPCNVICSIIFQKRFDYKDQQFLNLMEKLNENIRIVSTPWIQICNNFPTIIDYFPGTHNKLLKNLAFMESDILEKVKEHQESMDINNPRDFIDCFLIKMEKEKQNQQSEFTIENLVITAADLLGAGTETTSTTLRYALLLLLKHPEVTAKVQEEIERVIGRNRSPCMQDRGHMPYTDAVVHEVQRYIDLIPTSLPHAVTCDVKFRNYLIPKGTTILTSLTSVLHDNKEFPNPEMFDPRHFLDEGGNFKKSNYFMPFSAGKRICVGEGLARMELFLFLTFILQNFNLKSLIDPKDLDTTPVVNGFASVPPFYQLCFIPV
Sequence of Cytochrome P450 2D6 (P10635 whole entry): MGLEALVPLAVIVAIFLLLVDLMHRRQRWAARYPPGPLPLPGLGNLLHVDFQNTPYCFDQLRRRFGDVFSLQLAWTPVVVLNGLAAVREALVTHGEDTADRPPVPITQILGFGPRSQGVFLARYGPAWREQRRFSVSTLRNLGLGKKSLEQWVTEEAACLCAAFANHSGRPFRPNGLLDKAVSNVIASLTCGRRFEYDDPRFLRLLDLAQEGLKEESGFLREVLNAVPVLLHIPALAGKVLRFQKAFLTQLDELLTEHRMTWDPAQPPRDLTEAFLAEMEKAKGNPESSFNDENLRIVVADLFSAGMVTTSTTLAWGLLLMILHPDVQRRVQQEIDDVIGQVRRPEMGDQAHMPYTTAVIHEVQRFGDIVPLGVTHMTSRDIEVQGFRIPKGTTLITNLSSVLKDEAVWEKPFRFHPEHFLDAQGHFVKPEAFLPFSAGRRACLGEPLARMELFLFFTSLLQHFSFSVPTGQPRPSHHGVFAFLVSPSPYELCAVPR

Question: With CCCCCCCC(=O)CCc1ccc(O)c(OC)c1 as the compound, how does the activity at 0.5 h, 0.3 µM (CYP1A2 [1]) read?
Answer: 97.8%

Question: What about the activity at 0.5 h, 10 µM (CYP1A2 [2]) of the same compound?
Answer: 49.7%

Question: And the activity at 0.5 h, 3 µM (CYP2C8 [3])?
Answer: 58.7%

Question: And the activity at 0.5 h, 30 µM (CYP1A2 [4])?
Answer: 35.5%

Question: What about the activity at 0.5 h, 30 µM (CYP2C19) of the same compound?
Answer: 36.8%

Question: And the activity at 0.5 h, 10 µM (CYP2C8 [5])?
Answer: 49%

Question: What about the activity at 0.5 h, 1 µM (CYP3A4 [6]) of the same compound?
Answer: 91.5%

Question: What about the IC50 (Cytochrome P450 2D6) of the same compound?
Answer: > 30 µM

Question: What about the IC50 (Cytochrome P450 3A4) of the same compound?
Answer: > 30 µM

Question: What about the activity at 0.5 h, 3 µM (CYP3A4 [7]) of the same compound?
Answer: 103%

Question: And the IC50 (Cytochrome P450 2A6)?
Answer: > 30 µM

Question: And the activity at 0.5 h, 30 µM (CYP2C9)?
Answer: 46.9%
